Source: publication PMC5453931, “Cathelicidin-trypsin inhibitor loop conjugate represents a promising antibiotic candidate with protease stability” (Scientific Reports, 2017)
pKi: −log10 of the molar value. Converted amounts (≈) assume the structure as drawn. Where a SMILES comes first, the peptide text is derived from it. Bridges are numbered along the chain shown (N, C = ends).

Legend:
Vibrio cholerae = experiment: microbe, parasite or virus in culture; format: cell-based; conditions: Aquatic pathogenic bacteria; two-fold broth microdilution, 37 °C, 18 h; mean of three independent experiments in duplicates
Experimental: (§1) A two-fold broth microdilution method described in our previous paper was used to determine the antimicrobial activities of parental and hybrid peptides. More than 30 strains including Gram-negative bacteria, Gram-positive bacteria and fungi were used in the current assay, in which the standard strains were stored in our lab and the clinical strains were collected from local hospitals. Briefly, bacteria were incubated in Mueller-Hinton broth (MH broth) at 37 °C to exponential phase and diluted to 10^6 CFU/mL. A serial dilution of peptide sample were prepared in 96-well microtiter plates (50 μL) and mixed with equal volume of microbial inoculums (50 μL). The plate was slowly shaken in the microbial incubator, and measured at A595 after incubation at 37 °C for 18 h. The minimal concentrations at which no microbial growth occurred were recorded as MIC (minimal inhibitory concentration) values. The traditional antibiotic ampicillin was used as positive control. The results are shown in an average of the MICs obtained from three independent experiments.

Vibrio brasiiensis = experiment: microbe, parasite or virus in culture; format: cell-based; conditions: Aquatic pathogenic bacteria; two-fold broth microdilution, 37 °C, 18 h; mean of three independent experiments in duplicates
Experimental: as §1

P. Aeruginosa 08021015 = experiment: microbe, parasite or virus in culture; format: cell-based; conditions: Gram-negative; two-fold broth microdilution, MH broth, 37 °C, 18 h; mean of three independent experiments in duplicates
Experimental: as §1

Candida glabrata 08A802 = experiment: microbe, parasite or virus in culture; format: cell-based; conditions: Fungi; two-fold broth microdilution, 37 °C, 18 h; mean of three independent experiments in duplicates
Experimental: as §1

[1] = system: Escherichia coli ATCC25922; experiment: microbe, parasite or virus in culture; format: cell-based; conditions: Gram-negative; two-fold broth microdilution, MH broth, 37 °C, 18 h; mean of three independent experiments in duplicates
Experimental: as §1

[2] = system: Candida albicans 08030102; experiment: microbe, parasite or virus in culture; format: cell-based; conditions: Fungi; two-fold broth microdilution, 37 °C, 18 h; mean of three independent experiments in duplicates
Experimental: as §1

S. Aureus 08032706 = experiment: microbe, parasite or virus in culture; format: cell-based; conditions: Gram-positive; two-fold broth microdilution, MH broth, 37 °C, 18 h; mean of three independent experiments in duplicates
Experimental: as §1

K. Pneumoniae 08040202 = experiment: microbe, parasite or virus in culture; format: cell-based; conditions: Gram-negative; two-fold broth microdilution, MH broth, 37 °C, 18 h; mean of three independent experiments in duplicates
Experimental: as §1

Aeromonas veronii = experiment: microbe, parasite or virus in culture; format: cell-based; conditions: Aquatic pathogenic bacteria; two-fold broth microdilution, 37 °C, 18 h; mean of three independent experiments in duplicates
Experimental: as §1

[3] = system: Shigella dysenteriae 0804203; experiment: microbe, parasite or virus in culture; format: cell-based; conditions: Gram-negative; two-fold broth microdilution, MH broth, 37 °C, 18 h; mean of three independent experiments in duplicates
Experimental: as §1

[4] = system: Bacillus subtilis 08042313; experiment: microbe, parasite or virus in culture; format: cell-based; conditions: Gram-positive; two-fold broth microdilution, MH broth, 37 °C, 18 h; mean of three independent experiments in duplicates
Experimental: as §1

[5] = system: Enterococcus faecium 08052315; experiment: microbe, parasite or virus in culture; format: cell-based; conditions: Gram-positive; two-fold broth microdilution, MH broth, 37 °C, 18 h; mean of three independent experiments in duplicates
Experimental: as §1

E. Coli 08032823 = experiment: microbe, parasite or virus in culture; format: cell-based; conditions: Gram-negative; two-fold broth microdilution, MH broth, 37 °C, 18 h; mean of three independent experiments in duplicates
Experimental: as §1

S. Aureus 08032810 = experiment: microbe, parasite or virus in culture; format: cell-based; conditions: Gram-positive; two-fold broth microdilution, MH broth, 37 °C, 18 h; mean of three independent experiments in duplicates
Experimental: as §1

Aeromonas sobria = experiment: microbe, parasite or virus in culture; format: cell-based; conditions: Aquatic pathogenic bacteria; two-fold broth microdilution, 37 °C, 18 h; mean of three independent experiments in duplicates
Experimental: as §1

K. Pneumoniae 08031012 = experiment: microbe, parasite or virus in culture; format: cell-based; conditions: Gram-negative; two-fold broth microdilution, MH broth, 37 °C, 18 h; mean of three independent experiments in duplicates
Experimental: as §1

08030209 = experiment: microbe, parasite or virus in culture; format: cell-based, Arcyria cinerea; conditions: Fungi; two-fold broth microdilution, 37 °C, 18 h; mean of three independent experiments in duplicates
Experimental: as §1

[6] = system: Staphylococcus epidermidis; experiment: MIC, two-fold broth microdilution; format: cell-based; conditions: Gram-positive; two-fold broth microdilution, MH broth, 37 °C, 18 h; mean of three independent experiments in duplicates
Experimental: as §1

Vibrio Parahaemolyticus = experiment: MIC, two-fold broth microdilution; format: cell-based; conditions: Aquatic pathogenic bacteria; two-fold broth microdilution, 37 °C, 18 h; mean of three independent experiments in duplicates
Experimental: as §1

E. Coli 08032813 = experiment: MIC, two-fold broth microdilution; format: cell-based; conditions: Gram-negative; two-fold broth microdilution, MH broth, 37 °C, 18 h; mean of three independent experiments in duplicates
Experimental: as §1

trypsin = experiment: Trypsin inhibition assay (NBLAN hydrolysis, Dixon method); format: biochemical; conditions: 50 mM Tris–HCl pH 7.8, trypsin 0.1 mg/mL, 5 min pre-incubation at 37 °C, substrate NBLAN 48, 96, 192 μg/mL, 405 nm
Experimental: The inhibition effect on the hydrolysis of synthetic chromogenic substrate by trypsin was assayed in 50 mM Tris–HCl, pH 7.8 buffer at room temperature. The trypsin of final concentration of 0.1 mg/mL and different amounts of the hybrid peptide (final concentrations ranging from 0 to 0.16 μg/mL) were pre-incubated for 5 min at 37 °C. N-α-Benzoyl-DL-arginine p-nitroanilide hydrochloride (NBLAN) was used as a substrate for trypsin. The reaction was initiated by the addition of NBLAN with a final concentration of 48, 96 and 192 μg/mL, respectively. The formation of yellow product, p-nitroaniline was monitored continuously at 405 nm[61]. The inhibition constant Ki of the hybrid peptides were determined according to the method of Dixon (1953)[62].

E. coli 08040726 = experiment: MIC, two-fold broth microdilution (second listing of the strain number); format: cell-based; conditions: Gram-negative, MH broth, 37 °C, 18 h, mean of three independent experiments in duplicates
Experimental: as §1

CC[C@H](C)[C@@H]1NC(=O)[C@H](CO)NC(=O)[C@H](CCCCN)NC(=O)[C@H]([C@@H](C)O)NC(=O)[C@H](Cc2c[nH]c3ccccc23)NC(=O)[C@@H](N)CSSC[C@@H](C(=O)N[C@@H](CCCCN)C(=O)N[C@@H](Cc2ccccc2)C(=O)N[C@@H](Cc2ccccc2)C(=O)N[C@@H](CCCCN)C(=O)N[C@@H](CCCNC(=N)N)C(=O)N[C@@H](CC(C)C)C(=O)N[C@@H](CC(C)C)C(=O)N[C@@H](CCCCN)C(=O)N[C@@H](CO)C(=O)N[C@H](C(=O)N[C@@H](CCCNC(=N)N)C(=O)N[C@@H](CCCNC(=N)N)C(=O)N[C@@H](C)C(=O)N[C@H](C(=O)N[C@@H](CCCCN)C(=O)N[C@@H](CCCCN)C(=O)N[C@@H](Cc2ccccc2)C(N)=O)C(C)C)C(C)C)NC(=O)[C@@H]2CCCN2C(=O)[C@H](CCCCN)NC(=O)[C@@H]2CCCN2C(=O)[C@@H]2CCCN2C1=O [TIH3] (H-CWTKSIPPKPCKFFKRLLKSVRRAVKKF-NH2; disulfide 1-11)
MIC Vibrio cholerae (Vibrio cholerae): — (no detectable activity in MIC assay in dose of 200 µg/mL or in trypsin inhibition assay at concentration of 160 μg/mL) | MIC Vibrio brasiiensis (Vibrio brasiiensis): — (no detectable activity in MIC assay in dose of 200 µg/mL or in trypsin inhibition assay at concentration of 160 μg/mL) | MIC P. Aeruginosa 08021015 (P. Aeruginosa 08021015): — (no detectable activity in MIC assay in dose of 200 µg/mL or in trypsin inhibition assay at concentration of 160 μg/mL) | MIC Candida glabrata 08A802 (Candida glabrata 08A802): — (no detectable activity in MIC assay in dose of 200 µg/mL or in trypsin inhibition assay at concentration of 160 μg/mL) | MIC Escherichia coli ATCC25922 [1]: — (no detectable activity in MIC assay in dose of 200 µg/mL or in trypsin inhibition assay at concentration of 160 μg/mL) | MIC Candida albicans 08030102 [2]: — (no detectable activity in MIC assay in dose of 200 µg/mL or in trypsin inhibition assay at concentration of 160 μg/mL) | MIC S. Aureus 08032706 (S. Aureus 08032706): — (no detectable activity in MIC assay in dose of 200 µg/mL or in trypsin inhibition assay at concentration of 160 μg/mL) | MIC K. Pneumoniae 08040202 (K. Pneumoniae 08040202): — (no detectable activity in MIC assay in dose of 200 µg/mL or in trypsin inhibition assay at concentration of 160 μg/mL) | MIC Aeromonas veronii (Aeromonas veronii): — (no detectable activity in MIC assay in dose of 200 µg/mL or in trypsin inhibition assay at concentration of 160 μg/mL) | MIC Shigella dysenteriae 0804203 [3]: — (no detectable activity in MIC assay in dose of 200 µg/mL or in trypsin inhibition assay at concentration of 160 μg/mL) | MIC Bacillus subtilis 08042313 [4]: — (no detectable activity in MIC assay in dose of 200 µg/mL or in trypsin inhibition assay at concentration of 160 μg/mL) | MIC Enterococcus faecium 08052315 [5]: — (no detectable activity in MIC assay in dose of 200 µg/mL or in trypsin inhibition assay at concentration of 160 μg/mL) | MIC E. Coli 08032823 (E. Coli 08032823): — (no detectable activity in MIC assay in dose of 200 µg/mL or in trypsin inhibition assay at concentration of 160 μg/mL) | MIC S. Aureus 08032810 (S. Aureus 08032810): — (no detectable activity in MIC assay in dose of 200 µg/mL or in trypsin inhibition assay at concentration of 160 μg/mL) | MIC Aeromonas sobria (Aeromonas sobria): — (no detectable activity in MIC assay in dose of 200 µg/mL or in trypsin inhibition assay at concentration of 160 μg/mL) | MIC K. Pneumoniae 08031012 (K. Pneumoniae 08031012): — (no detectable activity in MIC assay in dose of 200 µg/mL or in trypsin inhibition assay at concentration of 160 μg/mL) | MIC Arcyria cinerea 08030209 08030209: — (no detectable activity in MIC assay in dose of 200 µg/mL or in trypsin inhibition assay at concentration of 160 μg/mL) | MIC Staphylococcus epidermidis [6]: — (no detectable activity in MIC assay in dose of 200 µg/mL or in trypsin inhibition assay at concentration of 160 μg/mL) | MIC Vibrio Parahaemolyticus (Vibrio Parahaemolyticus): 37.5 µg/mL (≈ 11.1 µM) | MIC E. Coli 08032813 (E. Coli 08032813): — (no detectable activity in MIC assay in dose of 200 µg/mL or in trypsin inhibition assay at concentration of 160 μg/mL) | pKi (trypsin): 5.12 | MIC E. Coli 08040726 (second line with this strain number) (E. coli 08040726): — (no detectable activity in MIC assay in dose of 200 µg/mL or in trypsin inhibition assay at concentration of 160 μg/mL)
